Measured values from patent publication US11141391B2, “Biomarkers for risk assessment, diagnosis and target microbiome and intestinal homeostasis for prevention and treatment of amyotrophic lateral sclerosis” (Rush University Medical Center, priority 2014, dated 2021).
Entries after “also recorded” stand apart in the source; their conditions may differ.

Experiments:
[1] = test system: ALS patients; conditions: cited from earlier work
[2] = test system: G93A amyotrophic lateral sclerosis model mice; test: Butyrate treated mice model: oral sodium butyrate in drinking water, body weight and survival; format: in vivo, mouse
From the text: Nine G93A mice were divided into a […] (n=4) and a butyrate group (n=5). Butyrate mice started to drink 2% sodium butyrate in the drinking water bottle from age 63 days, without treatment mice drank regular water mice. Without treatment mice died on day 127, 133, 143, 155 separately.
Mice were divided into control and butyrate group. Butyrate group mice were given 2% sodium butyrate (Sigma, St. Louis, Mo.) water ad libitum from age 63 days. The untreated control group was maintained on tap water throughout the experiment. Without treatment mice died on day 127, 133, 143, 155 separately.

Row | Compound | patient life span ([1]; FDA approved treatment) | relief of symptoms [1] | body weight loss ([2]; 2% sodium butyrate in drinking water ad libitum from age 63 days, n=5, vs untreated G93A mice n=4 (FIG. 4A)) | additional survival time of butyrate mice ([2]; 2% sodium butyrate in drinking water from age 63 days, relative to untreated mice that died on day 127-155) | survival ([2]; 2% sodium butyrate in drinking water from age 63 days, untreated mice died on day 127, 133, 143, 155 (FIG. 4B))
1 | Nc1nc2ccc(OC(F)(F)F)cc2s1 [Riluzole] | extends patient life span for only a few months | does not relieve symptoms |  |  | 
2 | CCCC(=O)[O-].[Na+] [sodium butyrate] |  |  | prevents body weight loss | survived at least one additional month or longer | extends survival time; also recorded: All the butyrate mice survived
